Experimental findings from US11168073B2, “3,3-difluoroallylamines or salts thereof and pharmaceutical compositions comprising the same” (YUHAN CORPORATION, priority 2018, dated 2021) are described below.

Assay type in all cases: biochemical
Assay [1] has as its target T1, recombinant human MAO-B (monoamine oxidase-B) (Homo sapiens, UniProt P27338).
T1 construct: purchased Sigma-Aldrich
T1 sequence (P27338 1-520): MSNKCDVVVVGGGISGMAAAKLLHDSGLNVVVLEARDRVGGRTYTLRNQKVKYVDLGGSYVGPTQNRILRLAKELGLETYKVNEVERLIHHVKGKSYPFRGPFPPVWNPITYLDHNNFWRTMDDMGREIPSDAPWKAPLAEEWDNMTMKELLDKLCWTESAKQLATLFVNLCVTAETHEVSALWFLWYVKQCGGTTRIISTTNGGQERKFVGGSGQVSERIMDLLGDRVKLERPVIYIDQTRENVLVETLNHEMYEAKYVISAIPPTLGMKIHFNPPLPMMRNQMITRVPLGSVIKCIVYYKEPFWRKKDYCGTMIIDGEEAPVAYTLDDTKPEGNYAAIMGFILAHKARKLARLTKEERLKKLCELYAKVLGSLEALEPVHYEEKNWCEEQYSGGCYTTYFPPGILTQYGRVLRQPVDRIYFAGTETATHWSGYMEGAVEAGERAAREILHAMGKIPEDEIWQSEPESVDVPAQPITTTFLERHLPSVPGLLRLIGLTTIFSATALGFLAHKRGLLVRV
Kind of assay: Activity evaluation on recombinant human MAO-B (Amplex Red/HRP-coupled assay, 1 mM benzylamine substrate). The note with it: read-out: Inhibitory Activity (IC50, nM) MAO-B. As to the method: (§1) The compounds according to the present technology were evaluated in terms of activity on recombinant human VAP-1 (R&D systems) by measuring the level of hydrogen peroxide in horseradish peroxidase (HRP)-coupled reaction using Amplex Red Hydrogen Peroxide Assay Kit (Molecular Probes, Invitrogen, USA). The experiment was carried out at room temperature using benzylamine as a substrate. In the HRP-coupled reaction, hydrogen peroxide oxidation of 10-acetyl-3,7-dihydroxyphenoxazine (Amplex Red reagent) produces resorufin, which is a highly fluorescent compound. Briefly, the test compound was dissolved in dimethyl sulfoxide (DMSO) at a concentration of 20 mM. The dose-response assessment was made by 1:3 serial dilution in DMSO, thereby creating a 8 point curve. The concentration of the upper part was controlled according to the efficacy of the compounds, followed by the dilution with a reaction buffer solution to obtain a final DMSO concentration of less than 1%. To each well of a 96 black well plate, human VAP-1 purified in 50 mM sodium phosphate buffer solution (pH7.4) was added. The test compounds dissolved in DMSO were incubated with the human VAP-1 enzymes at 37° C. for 30 minutes. After 30-minute incubation, each well was added with a reaction mixture containing 200 uM Amplex Red reagent prepared from 50 mM sodium phosphate buffer solution (pH 7.4), 1 mM benzylamine, and 1 U/mL HRP. Fluorescence intensity was measured at several time points during 1-2 hours using a microplate reader (Flexstation3, Molecular Devices) under the wavelength condition exciting at 544 nm and reading the emission at 590 nm. The inhibitory effect of the compounds was measured as a decrease (%) in the signal rate as compared to the control group without any inhibitor (only diluted DMSO). Data was fixed to a logistic model with four variables and IC50 value was calculated using GraphPad Prism program.
(§2) In addition, the compounds according to the present technology were evaluated in terms of activity on a recombinant human MAO-A (monoamine oxidase-A, Sigma-Aldrich) and a recombinant human MAO-B (monoamine oxidase-B, Sigma-Aldrich) by using as substrates, 0.5 mM tyramine and 1 mM benzylamine, respectively, with a method similar to the activity evaluation method for recombinant human VAP-1. The compounds according to the present technology were also evaluated in terms of activity on a recombinant human DAO (diamine oxidase, R&D systems) by using as a substrate 1 mM putrescine with a method similar to the activity evaluation method for recombinant human VAP-1.

The target in assay [2] is T2, recombinant human VAP-1 (Homo sapiens, UniProt Q16853).
T2 construct: purchased R&D systems
T2 sequence (Q16853 1-763): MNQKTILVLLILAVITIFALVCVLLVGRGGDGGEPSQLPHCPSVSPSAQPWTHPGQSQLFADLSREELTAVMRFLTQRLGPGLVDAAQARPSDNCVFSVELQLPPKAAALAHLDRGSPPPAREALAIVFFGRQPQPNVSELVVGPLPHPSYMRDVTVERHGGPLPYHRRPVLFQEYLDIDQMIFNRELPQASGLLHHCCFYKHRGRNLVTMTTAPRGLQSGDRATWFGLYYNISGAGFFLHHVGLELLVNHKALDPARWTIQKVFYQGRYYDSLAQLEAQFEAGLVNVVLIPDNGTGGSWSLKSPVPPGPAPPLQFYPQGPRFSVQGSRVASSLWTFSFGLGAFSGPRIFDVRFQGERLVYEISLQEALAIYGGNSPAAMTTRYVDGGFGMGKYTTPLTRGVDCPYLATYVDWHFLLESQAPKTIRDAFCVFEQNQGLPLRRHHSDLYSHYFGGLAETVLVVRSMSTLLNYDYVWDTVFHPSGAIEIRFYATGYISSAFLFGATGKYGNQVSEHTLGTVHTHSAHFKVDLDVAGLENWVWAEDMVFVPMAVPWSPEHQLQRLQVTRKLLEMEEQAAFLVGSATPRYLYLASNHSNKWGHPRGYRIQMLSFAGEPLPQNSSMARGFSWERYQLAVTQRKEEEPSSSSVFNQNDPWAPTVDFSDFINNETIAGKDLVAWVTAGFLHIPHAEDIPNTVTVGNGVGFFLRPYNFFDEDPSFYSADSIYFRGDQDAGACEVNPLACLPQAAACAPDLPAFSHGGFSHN
Kind of assay: Activity evaluation on recombinant human VAP-1 (Amplex Red/HRP-coupled hydrogen peroxide assay, benzylamine substrate). The following applies: read-out: Inhibitory Activity (IC50, nM) human VAP-1. Here is the method:
as §1

Assay [3] has as its target T3, recombinant human DAO (diamine oxidase) (Homo sapiens, UniProt P19801).
T3 construct: purchased R&D systems
T3 sequence (P19801 20-751): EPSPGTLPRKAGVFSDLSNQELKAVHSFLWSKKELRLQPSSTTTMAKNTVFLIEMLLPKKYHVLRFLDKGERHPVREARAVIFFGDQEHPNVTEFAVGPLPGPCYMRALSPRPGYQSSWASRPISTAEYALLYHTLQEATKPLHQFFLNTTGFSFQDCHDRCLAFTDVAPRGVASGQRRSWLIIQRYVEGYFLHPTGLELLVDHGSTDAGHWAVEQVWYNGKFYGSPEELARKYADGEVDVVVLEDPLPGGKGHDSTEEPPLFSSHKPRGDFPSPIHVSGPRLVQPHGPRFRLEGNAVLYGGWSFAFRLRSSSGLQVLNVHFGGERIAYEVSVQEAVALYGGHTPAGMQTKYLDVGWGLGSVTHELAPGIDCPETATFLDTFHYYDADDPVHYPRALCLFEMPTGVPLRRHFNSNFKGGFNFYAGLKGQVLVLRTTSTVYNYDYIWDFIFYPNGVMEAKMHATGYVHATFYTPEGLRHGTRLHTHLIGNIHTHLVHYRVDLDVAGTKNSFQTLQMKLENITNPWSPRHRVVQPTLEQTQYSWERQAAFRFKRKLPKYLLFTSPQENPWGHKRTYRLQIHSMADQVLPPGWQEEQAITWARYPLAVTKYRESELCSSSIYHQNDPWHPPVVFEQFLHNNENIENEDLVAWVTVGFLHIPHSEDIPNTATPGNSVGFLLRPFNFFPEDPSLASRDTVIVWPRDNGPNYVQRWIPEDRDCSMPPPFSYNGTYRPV
In words: Activity evaluation on recombinant human DAO (Amplex Red/HRP-coupled assay, 1 mM putrescine substrate). The following applies: read-out: Inhibitory Activity (IC50, nM) DAO. As to the method: as §1, §2

Assay [4] concerns the target T4, recombinant human MAO-A (monoamine oxidase-A) (Homo sapiens, UniProt P21397).
T4 construct: purchased Sigma-Aldrich
T4 sequence (P21397 1-527): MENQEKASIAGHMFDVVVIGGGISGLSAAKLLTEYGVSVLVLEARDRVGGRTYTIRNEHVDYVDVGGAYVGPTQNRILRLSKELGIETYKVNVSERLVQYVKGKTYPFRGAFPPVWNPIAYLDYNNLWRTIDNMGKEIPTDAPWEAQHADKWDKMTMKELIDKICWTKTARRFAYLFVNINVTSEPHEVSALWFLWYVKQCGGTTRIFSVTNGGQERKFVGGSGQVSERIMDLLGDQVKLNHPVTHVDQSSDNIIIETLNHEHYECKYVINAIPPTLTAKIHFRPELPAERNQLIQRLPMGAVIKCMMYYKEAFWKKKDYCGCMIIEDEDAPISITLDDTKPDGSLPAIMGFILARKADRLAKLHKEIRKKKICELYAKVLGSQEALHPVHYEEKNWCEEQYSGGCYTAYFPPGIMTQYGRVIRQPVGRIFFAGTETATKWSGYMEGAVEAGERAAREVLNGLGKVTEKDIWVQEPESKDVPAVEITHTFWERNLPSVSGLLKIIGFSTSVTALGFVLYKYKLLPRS
In words: Activity evaluation on recombinant human MAO-A (Amplex Red/HRP-coupled assay, 0.5 mM tyramine substrate). The note with it: read-out: Inhibitory Activity (IC50, nM) MAO-A. As to the method:
as §1, §2

The mark [5] stands for this setting: recombinant human VAP-1, 30 min preincubation at 37° C., 1 mM benzylamine.
[6] abbreviates: recombinant human VAP-1, benzylamine substrate.

The structures appear in SMILES notation. Structures can show the parent of a compound that is named as a salt. Where two headings read alike, the source gives them in different places.

For the compound `NCC(Cn1ncn(Cc2cc(-c3ccc(N4CCNCC4)cc3)cs2)c1=O)=C(F)F` [Example 147, 2-[2-(aminomethyl)-3,3-difluoro-allyl]-4-[[4-(4-piperazin-1-ylphenyl)-2-thienyl]methyl]-1,2,4-triazol-3-one Ditrifluoroacetate], the IC50 – broadly, the point on the concentration scale where inhibition reaches its midpoint – in assay [1] (1 mM benzylamine) is > 100000 nM; in assay [2] (setting [5]), 11 nM; in assay [3] (1 mM putrescine), 2600 nM; in assay [4] (0.5 mM tyramine), > 100000 nM.
Regarding `NCC(Cn1ncn(Cc2ccc(OCc3ccccc3)cc2)c1=O)=C(F)F` [Example 96, 2-[2-(aminomethyl)-3,3-difluoro-allyl]-4-[(4-benzyloxyphenyl)methyl]-1,2,4-triazol-3-one Trifluoroacetate], the IC50 was 220 nM in assay [1] (1 mM benzylamine), 13 nM in assay [2] (setting [5]), > 100000 nM in assay [3] (1 mM putrescine) and > 100000 nM in assay [4] (0.5 mM tyramine).
For the compound `Cc1cc(-c2ccc(N3CCNCC3)cc2)sc1Cn1cnn(CC(CN)=C(F)F)c1=O` [Example 155, 2-[2-(aminomethyl)-3,3-difluoro-allyl]-4-[[3-methyl-5-(4-piperazin-1-ylphenyl)-2-thienyl]methyl]-1,2,4-triazol-3-one Ditrifluoroacetate], the half-inhibitory concentration (IC50) in assay [1] (1 mM benzylamine) was > 100000 nM; in assay [2] (setting [5]), 56 nM; in assay [3] (1 mM putrescine) it was 50000 nM; in assay [4] (0.5 mM tyramine), > 100000 nM.
`CCn1cc(-c2cc(-n3cnn(CC(CN)=C(F)F)c3=O)ccn2)cn1` [Example 67, 2-[2-(aminomethyl)-3,3-difluoro-allyl]-4-[2-(1-ethylpyrazol-4-yl)-4-pyridyl]-1,2,4-triazol-3-one Trifluoroacetate]: the IC50 in assay [1] (1 mM benzylamine) was 8300 nM; in assay [2] (setting [5]), 0.9 nM; in assay [3] (1 mM putrescine), 490 nM; in assay [4] (0.5 mM tyramine), > 100000 nM.
On to `CS(=O)(=O)c1ccc(-c2cccc(-n3cnn(CC(CN)=C(F)F)c3=O)c2)cc1` [Example 17, 2-[2-(aminomethyl)-3,3-difluoro-allyl]-4-[3-(4-methylsulfonylphenyl)phenyl]-1,2,4-triazol-3-one Trifluoroacetate], for which the IC50 was > 10000 nM in assay [1] (1 mM benzylamine), 12 nM in assay [2] (setting [5]), 1300 nM in assay [3] (1 mM putrescine) and > 100000 nM in assay [4] (0.5 mM tyramine).
`CCn1cc(-c2ccccc2Cn2cnn(CC(CN)=C(F)F)c2=O)ccc1=O` [Example 285, 5-[2-[[1-[2-(aminomethyl)-3,3-difluoro-allyl]-5-oxo-1,2,4-triazol-4-yl]methyl]phenyl]-1-ethyl-pyridin-2-one Trifluoroacetate]: the IC50 in assay [1] (1 mM benzylamine substrate) is > 100000 nM; in assay [2] (setting [6]), > 100 nM; in assay [3] (1 mM putrescine substrate) it was > 100000 nM; in assay [4] (0.5 mM tyramine substrate), > 100000 nM.
Regarding `NCC(Cn1ncn(Cc2cc3ccc(-c4ccc(N5CCNCC5)cc4)cc3s2)c1=O)=C(F)F` [Example 198, 2-[2-(aminomethyl)-3,3-difluoro-allyl]-4-[[6-(4-piperazin-1-ylphenyl)benzothiophen-2-yl]methyl]-1,2,4-triazol-3-one Ditrifluoroacetate], the IC50 in assay [1] (1 mM benzylamine substrate) was 23000 nM; in assay [2] (setting [6]), 4.6 nM; in assay [3] (1 mM putrescine substrate), 880 nM; in assay [4] (0.5 mM tyramine substrate), > 100000 nM.
Consider `CN1CC=C(c2ccc(Cn3cnn(CC(CN)=C(F)F)c3=O)s2)CC1` [Example 124, 2-[2-(aminomethyl)-3,3-difluoro-allyl]-4-[[5-(1-methyl-3,6-dihydro-2H-pyridin-4-yl)-2-thienyl]methyl]-1,2,4-triazol-3-one Trifluoroacetate], for which the IC50 in assay [1] (1 mM benzylamine) is > 100000 nM; in assay [2] (setting [5]), 11 nM; in assay [3] (1 mM putrescine), > 100000 nM; in assay [4] (0.5 mM tyramine), > 100000 nM.
For `Cc1c(-c2ccc(N3CCNCC3)cc2)cccc1-n1cnn(CC(CN)=C(F)F)c1=O` [Example 254, 2-[2-(aminomethyl)-3,3-difluoro-allyl]-4-[2-methyl-3-(4-piperazin-1-ylphenyl)phenyl]-1,2,4-triazol-3-one Ditrifluoroacetate], the IC50 in assay [1] (1 mM benzylamine substrate) is > 100000 nM; in assay [2] (setting [6]), 8 nM; in assay [3] (1 mM putrescine substrate), > 100000 nM; in assay [4] (0.5 mM tyramine substrate), > 100000 nM.
